Test results reported in patent US20210196675A1, “USE OF GINKGO BILOBA TERPENE LACTONE IN PREPARATION OF DRUGS FOR PREVENTION AND/OR TREATMENT OF TREMORS AND HEALTHCARE PRODUCTS” (CHENGDU BAIYU PHARMACEUTICAL CO., LTD., priority 2018, published 2021).
Structures can show the parent of a compound that is named as a salt.

Columns and labels:
[1] = tested on: mice with essential tremor; test: Rotating rod test in harmaline induced mouse model of essential tremor; type: in vivo, ICR male mice; conditions: for Residence Time on Rod, Time 0: 15 minutes after modeling with harmaline, immediately before administration; for Residence Time on Rod, Time 0 / Residence Time on Rod, 30 min / Residence Time on Rod, 60 min / Residence Time on Rod, 90 min / Residence Time on Rod, Pre-harmaline: mean ± SD; for Residence Time on Rod, 30 min: 30 min after time 0/administration; for Residence Time on Rod, 30 min / Residence Time on Rod, 60 min / Residence Time on Rod, 90 min: test groups 5 mg/kg·bw intraperitoneal, propranolol 2 mg/kg·bw gavage; for Residence Time on Rod, 60 min: 60 min after time 0/administration; for Residence Time on Rod, 90 min: 90 min after time 0/administration; for Ratio of area under the curve of each group to area under the curve of the model control group: area under the rod exercise ability recovery curve, model control group = 1, normal control group 6.47; for residence time on rod compared with model control group (in words): at each time point 30 min, 60 min, 90 min; for residence time on rod compared with model control group (in words) / recovery of exercise ability in the rotating rod test compared with model control (in words): p<0.05; for Residence Time on Rod, Pre-harmaline: baseline before harmaline and before administration, 10 mice per group, max 180 seconds; for recovery of exercise ability in the rotating rod test compared with model control (in words): from area under the curve, Table 2
Text: Effect of Ginkgo biloba terpene lactone on the Mouse Model of Essential Tremor Induced by Harmaline
The following animals are used: 100 […] (ICR) male mice of SPF grade, weighted 18-22 g, purchased from Chengdu Dashuo Experimental Animal Co., Ltd., with the animal production license number of SCXK (Sichuan) 2015-030.
100 mice were randomly assigned to ear label number and randomly divided into 10 groups according to weight stratified random number method, with 10 mice in each group.
The groups are: normal control group, model control group, propranolol hydrochloride tablet control group, Ginkgo biloba leave extract injection solution control group, ginkgolide injection group, ginkgolide A group, ginkgolide B group, bilobalide group, ginkgolide B/bilobalide group (GB:BB=1:1 w/w) and ginkgolide A/B/C group (A:B:C=1:1:1 w/w/w).
The normal control group and the model control group were administrated 0.9% sodium chloride injection by intraperitoneal injection at 0.1 mL/10 g·bw.
The hydrochloride tablet control group was administrated by gavage a solution (prepared with 0.9% sodium chloride injection) at 2 mg/kg·bw.
Ginkgolide injection group, ginkgolide A group, ginkgolide B group, bilobalide group, ginkgolide B/bilobalide group, ginkgolide A/B/C group were administrated by intraperitoneal injection at 5 mg/kg·bw.
Ginkgo biloba leave extract injection solution control group was administered by intraperitoneal injection at 5 mg/kg·bw.
On the day before the rotating rod test, all mice were given rotating rod training, so that they were familiar with the relevant movements and were able to maintain balance by climbing continuously, without falling from the rotating rod at a low rotating speed (10 circles/min).
First, a rotating rod test was performed on all mice. The result was recorded as Pre-harmaline, used as the basic value of their exercise ability.
15 minutes after modeling, the time when it is observed that the mice given harmaline show obvious tremor, reduced activity and ataxia symptoms, was took as time 0. A rotating rod test was performed on all mice at time 0. Then the mice were administered immediately.
After time 0, a rotating rod test was performed on all mice at time 30 min (30 min), time 60 min (60 min), and time 90 min (90 min).
Rotary rod test method: the mice were placed on the Rota Rod Fatigue Tester, and adapted for 20 seconds. After the mice stood steady on the rod, the tester was started and the rod was accelerated at a constant rate according to the setting. Each mouse's residence time on the rod, from the beginning of the test to the time when falling off the rod, was recorded respectively. The Rota Rod Fatigue Tester supports up to 6 channels for simultaneous testing.
The rod is set to rotate at an initial speed of 5 circles/min (5 c/min) which is increased at a constant rate to a maximum speed of 30 circles/min (30c/min) during 120 seconds, and kept at the maximum speed for 60 seconds. Therefore, each test costs 180 seconds in total, and the mice that had not yet fallen off the rod at the end of 180 seconds was recorded as having a residence time of 180 seconds on the rod.
Exercise ability change curves of the mice in each group were drawn, and the area under the curve was calculated.
The experimental data were processed by using a SPSS 19.0 statistical software. The measurement data are expressed as mean±standard deviation (±SD). Data normality test was performed using the Kolmogorov-Smirnov method.

[2] = tested on: Patients with Essential Tremor; test: Observation of dropping pills on patients with essential tremor (tremor score, adverse reactions); type: in vivo, human; conditions: Patient 2, general information before treatment
Text: The following 6 items related to tremor are scored: 1) patient complaint; 2) upper limb tremor procedure; 3) head, jaw, tongue and lower limb tremor degree; 4) full water test; 5) dressing, eating, buttoning and chopstick using; and 6) drawing circles and straight lines. The score for each item is classified as: normal (scored 0 piont), mild (scored 1 point), moderate (scored 2 points) and severe (scored 3 points).
Ineffective: the difference in tremor score before and after the treatment is −1 to 1.
(§1) Deterioration: the difference in tremor score before and after the treatment is ≤−2.

[3] = tested on: Patients with Vascular Tremor; test: Observation of dropping pills on patients with vascular tremor (tremor score, adverse reactions); type: in vivo, human; conditions: Patients 1, 2, 3, general information before treatment
Text: Diagnosis criteria: A. Reduced movement, muscle rigidity, forward gait, broken steps and reciprocating; B. Positive signs of the nervous system; C. A history of hypertension and cerebral arteriosclerosis.
Exclusion criteria: Tremor paralysis caused by drugs and other diseases are excluded.
The following 6 items related to tremor are scored: 1) patient complaint; 2) upper limbs tremor procedure; 3) head, jaw, tongue and lower limbs tremor degree; 4) full water test; 5) dressing, eating, buttoning and chopsticks using; 6) drawing circles and straight lines. The score for each item is classified as: normal (scored 0 piont), mild (scored 1 point), moderate (scored 2 points) and severe (scored 3 points).
Ineffective: the difference in tremor score before and after the treatment is −1 to 1
as §1

Structure (SMILES) | Residence Time on Rod, Time 0 [1] [s] | Residence Time on Rod, 30 min [1] [s] | Residence Time on Rod, 60 min [1] [s] | Residence Time on Rod, 90 min [1] [s] | Ratio of area under the curve of each group to area under the curve of the model control group [1] | residence time on rod compared with model control group (in words) [1] | Residence Time on Rod, Pre-harmaline [1] [s] | recovery of exercise ability in the rotating rod test compared with model control (in words) [1] | effect in this patient (patient history) [2] | effect in this patient (patient history) [3]
CC(C)(C)[C@]1(O)CC2OC(=O)CC23C(=O)OC2OC(=O)[C@H](O)C231 (stereo partly shown) [Bilobalide, bilobalide] | 40.0 ± 15.6 | 48.2 ± 12.8 | 61.2 ± 15.2 | 90.6 ± 13.9 | 2.20 | significantly higher than that of the model control group | 171.6 ± 17.9 | significantly better than that of model control mice | – | –
C[C@@H]1C(=O)O[C@H]2C[C@@]34[C@H]5C[C@@H](C(C)(C)C)[C@]36[C@@H](OC(=O)[C@@H]6O)O[C@@]4(C(=O)O5)[C@]21O [Ginkgolide A, ginkgolide A] | 42.6 ± 10.8 | 50.8 ± 10.9 | 60.3 ± 13.1 | 91.4 ± 11.5 | 2.24 | significantly higher than that of the model control group | 170.6 ± 21.2 | significantly better than that of model control mice | – | –
CC1C(=O)OC2C(O)C34C5CC(C(C)(C)C)C36C(OC(=O)C6O)OC4(C(=O)O5)C12O (stereo not shown) [Ginkgolide B, ginkgolide B] | 43.9 ± 12.3 | 52.6 ± 9.8 | 65.8 ± 12.8 | 100.2 ± 14.2 | 2.39 | significantly higher than that of the model control group | 175.7 ± 18.3 | significantly better than that of model control mice | – | –
N[C@@H](Cc1ccc(O)c(O)c1)C(=O)O [Levodopa] | – | – | – | – | – | – | – | – | no effect | no effect
CC(C)NCC(O)COc1cccc2ccccc12 (stereo not shown) [Propranolol hydrochloride tablet, Propranolol hydrochloride, reference compound] | 41.6 ± 12.8 | 60.1 ± 12.8 | 77.6 ± 10.3 | 119.3 ± 13.0 | 2.74 | significantly higher than that of the model control group | 176.6 ± 12.9 | significantly better than that of model control mice | – | –
